The values below come from patent US10072011B2, “Substituted bridged urea analogs as sirtuin modulators” (GlaxoSmithKline Intellectual Property (No.2) Limited, priority 2014, dated 2018).

For this experiment, the target named is T1, SIRT1 (Homo sapiens, UniProt Q96EB6).
T1 sequence (Q96EB6 1-747): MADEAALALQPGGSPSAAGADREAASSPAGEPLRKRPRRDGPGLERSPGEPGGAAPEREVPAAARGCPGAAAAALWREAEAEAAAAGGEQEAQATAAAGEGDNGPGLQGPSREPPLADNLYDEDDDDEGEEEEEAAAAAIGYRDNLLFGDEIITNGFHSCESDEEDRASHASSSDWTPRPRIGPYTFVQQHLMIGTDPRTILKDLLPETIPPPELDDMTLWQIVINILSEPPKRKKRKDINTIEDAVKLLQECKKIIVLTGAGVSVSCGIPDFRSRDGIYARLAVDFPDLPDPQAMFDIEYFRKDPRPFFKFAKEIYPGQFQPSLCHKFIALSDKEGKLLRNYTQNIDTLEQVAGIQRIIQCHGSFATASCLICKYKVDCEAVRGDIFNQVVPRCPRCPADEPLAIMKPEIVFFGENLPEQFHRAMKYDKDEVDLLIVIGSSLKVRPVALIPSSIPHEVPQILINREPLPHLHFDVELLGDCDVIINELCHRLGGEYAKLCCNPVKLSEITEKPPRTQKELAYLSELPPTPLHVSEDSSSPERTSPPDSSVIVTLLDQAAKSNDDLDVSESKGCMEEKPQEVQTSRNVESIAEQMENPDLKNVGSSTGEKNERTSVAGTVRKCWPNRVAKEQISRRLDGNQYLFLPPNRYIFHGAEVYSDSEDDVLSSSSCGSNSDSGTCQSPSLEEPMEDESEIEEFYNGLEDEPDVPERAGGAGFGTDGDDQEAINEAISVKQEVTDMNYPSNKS
Briefly: Trp mass spectrometry assay of SIRT1 activation (Ac-R-H-K-K(Ac)-W-NH2 peptide). Format: biochemical. To be noted: Trp peptide 0.5 μM, 120 μM βNAD+, 10 nM SIRT1, 25 min at 25° C.; for Emax: 25 min, relative to control (100%), read-out: TRP MAX RESP (percent maximum fold activation). A digest of the protocol:
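N-terminal His-tagged human SIRT1, expressed in BL21(DE3) and purified, was incubated 25 min with an acetylated Trp peptide and NAD plus test compound at varying concentrations, then quenched with formic acid. OAADPR or deacetylated peptide was quantified by mass spectrometry versus compound-free control; EC1.5 is the concentration giving 50% activity increase, with percent maximum activation.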

For `Cc1nc(NC(=O)N2c3nc(C(=O)N[C@H](C)C(F)(F)F)ccc3N3CC[C@H]2C3)co1` [Example 25, (4S)—N5-(2-methyloxazol-4-yl)-N7-((R)-1,1,1-trifluoropropan-2-yl)-3,4-dihydro-1,4-methanopyrido[2,3-b][1,4]diazepine-5,7(2H)-dicarboxamide], the Emax is > 150% and the “TRP Activity (EC1.5, concentration of test compound that results in 150% activation of SIRT1)” value was “A (EC1.5<1 μM)”.

Regarding `C[C@@H](NC(=O)c1ccc2c(n1)N(C(=O)Nc1cc(-n3ccnn3)ccn1)[C@H]1CCN2C1)C(F)(F)F` [Example 182, (4S)—N5-(4-(1H-1,2,3-triazol-1-yl)pyridin-2-yl)-N7-((R)-1,1,1-trifluoropropan-2-yl)-3,4-dihydro-1,4-methanopyrido[2,3-b][1,4]diazepine-5,7(2H)-dicarboxamide], the Emax is > 150% and the “TRP Activity (EC1.5, concentration of test compound that results in 150% activation of SIRT1)” value is on record as “A (EC1.5<1 μM)”.

Consider `O=C(NC1CC1)c1ccc2c(n1)N(C(=O)Nc1cnccn1)[C@H]1CCN2C1` [Example 222, (4S)—N7-cyclopropyl-N5-(pyrazin-2-yl)-3,4-dihydro-1,4-methanopyrido[2,3-b][1,4]diazepine-5,7(2H)-dicarboxamide], for which the Emax was > 150% and the “TRP Activity (EC1.5, concentration of test compound that results in 150% activation of SIRT1)” value is “B (EC1.5 1-25 μM)”.

On to `C[C@@H](NC(=O)c1nc2c(cc1Cl)N1CC[C@@H](C1)N2C(=O)Nc1cc(-c2cnco2)ccn1)C(F)(F)F` [Example 282, (4S)-8-chloro-N5-(4-(oxazol-5-yl)pyridin-2-yl)-N7-((R)-1,1,1-trifluoropropan-2-yl)-3,4-dihydro-1,4-methanopyrido[2,3-b][1,4]diazepine-5,7(2H)-dicarboxamide], for which the Emax was > 150% and the “TRP Activity (EC1.5, concentration of test compound that results in 150% activation of SIRT1)” value is “A (EC1.5<1 μM)”.

In the case of `O=C(NCC(F)(F)F)c1ccc2c(n1)N(C(=O)Nc1ccc3[nH]c(=O)[nH]c3c1)[C@H]1CCN2C1` [Example 232, (4S)—N5-(2-oxo-2,3-dihydro-1H-benzo[d]imidazol-5-yl)-N7-(2,2,2-trifluoroethyl)-3,4-dihydro-1,4-methanopyrido[2,3-b][1,4]diazepine-5,7(2H)-dicarboxamide], the Emax is < 150% and the “TRP Activity (EC1.5, concentration of test compound that results in 150% activation of SIRT1)” value is reported as “C (EC1.5>25 μM)”.

On to `C[C@@H](NC(=O)c1ccc2c(n1)N(C(=O)Nc1cccc(OC[C@@H](O)CO)n1)[C@H]1CCN2C1)C(F)(F)F` [Example 144, (4S)—N5-(6-((S)-2,3-dihydroxypropoxy)pyridin-2-yl)-N7-((R)-1,1,1-trifluoropropan-2-yl)-3,4-dihydro-1,4-methanopyrido[2,3-b][1,4]diazepine-5,7(2H)-dicarboxamide], for which the Emax was > 150% and the “TRP Activity (EC1.5, concentration of test compound that results in 150% activation of SIRT1)” value is on record as “A (EC1.5<1 μM)”.

Take `CC(C)CNC(=O)c1ccc2c(n1)N(C(=O)Nc1ccccn1)[C@H]1CCN2C1` [Example 37, (4S)—N7-isobutyl-N5-(pyridin-2-yl)-3,4-dihydro-1,4-methanopyrido[2,3-b][1,4]diazepine-5,7(2H)-dicarboxamide]: the Emax is > 150% and the “TRP Activity (EC1.5, concentration of test compound that results in 150% activation of SIRT1)” value was “A (EC1.5<1 μM)”.

On to `C[C@@H](NC(=O)c1ccc2c(n1)N(C(=O)Nc1cc(OCCCO)ccn1)[C@H]1CCN2C1)C(F)(F)F` [Example 266, (4S)—N5-(4-(3-hydroxypropoxy)pyridin-2-yl)-N7-((R)-1,1,1-trifluoropropan-2-yl)-3,4-dihydro-1,4-methanopyrido[2,3-b][1,4]diazepine-5,7(2H)-dicarboxamide], for which the Emax was > 150% and the “TRP Activity (EC1.5, concentration of test compound that results in 150% activation of SIRT1)” value is given as “A (EC1.5<1 μM)”.

In the case of `C[C@@H](NC(=O)c1ccc2c(n1)N(C(=O)Nc1ccc(OC[C@@H](O)CO)cn1)[C@H]1CCN2C1)C(F)(F)F` [Example 153, (4S)—N5-(5-((S)-2,3-dihydroxypropoxy)pyridin-2-yl)-N7-((R)-1,1,1-trifluoropropan-2-yl)-3,4-dihydro-1,4-methanopyrido[2,3-b][1,4]diazepine-5,7(2H)-dicarboxamide], the Emax was > 150% and the “TRP Activity (EC1.5, concentration of test compound that results in 150% activation of SIRT1)” value is on record as “A (EC1.5<1 μM)”.

As for `C[C@@H](NC(=O)c1ccc2c(n1)N(C(=O)Nc1ccsn1)[C@H]1CCN2C1)C(F)(F)F` [Example 190, (4S)—N5-(isothiazol-3-yl)-N7-((R)-1,1,1-trifluoropropan-2-yl)-3,4-dihydro-1,4-methanopyrido[2,3-b][1,4]diazepine-5,7(2H)-dicarboxamide], the Emax was > 150% and the “TRP Activity (EC1.5, concentration of test compound that results in 150% activation of SIRT1)” value is listed as “A (EC1.5<1 μM)”.

For `CN(C)CCOc1ccnc(NC(=O)N2c3nc(C(=O)NCC(F)(F)F)ccc3N3CC[C@H]2C3)c1` [Example 227, (4S)—N5-(4-(2-(dimethylamino)ethoxy)pyridin-2-yl)-N7-(2,2,2-trifluoroethyl)-3,4-dihydro-1,4-methanopyrido[2,3-b][1,4]diazepine-5,7(2H)-dicarboxamide], the Emax was > 150% and the “TRP Activity (EC1.5, concentration of test compound that results in 150% activation of SIRT1)” value is reported as “B (EC1.5 1-25 μM)”.

As for `Cc1ncc(-c2ccnc(NC(=O)N3c4nc(C(=O)NCC5CC5)ccc4N4CC[C@H]3C4)c2)o1` [Example 114, (4S)—N7-(cyclopropylmethyl)-N5-(4-(2-methyloxazol-5-yl)pyridin-2-yl)-3,4-dihydro-1,4-methanopyrido[2,3-b][1,4]diazepine-5,7(2H)-dicarboxamide], the Emax was > 150% and the “TRP Activity (EC1.5, concentration of test compound that results in 150% activation of SIRT1)” value was “B (EC1.5 1-25 μM)”.

Turning to `O=C(NCc1cccc(F)c1)c1ccc2c(n1)N(C(=O)Nc1cc(OC[C@H](O)CO)ccn1)[C@H]1CCN2C1` [Example 187, (4S)—N5-(4-((R)-2,3-dihydroxypropoxy)pyridin-2-yl)-N7-(3-fluorobenzyl)-3,4-dihydro-1,4-methanopyrido[2,3-b][1,4]diazepine-5,7(2H)-dicarboxamide], the Emax is > 150% and the “TRP Activity (EC1.5, concentration of test compound that results in 150% activation of SIRT1)” value is given as “A (EC1.5<1 μM)”.

In the case of `C#CCNC(=O)c1ccc2c(n1)N(C(=O)Nc1ccccn1)[C@H]1CCN2C1` [Example 99, (4S)—N7-(prop-2-yn-1-yl)-N5-(pyridin-2-yl)-3,4-dihydro-1,4-methanopyrido[2,3-b][1,4]diazepine-5,7(2H)-dicarboxamide], the Emax is > 150% and the “TRP Activity (EC1.5, concentration of test compound that results in 150% activation of SIRT1)” value is “A (EC1.5<1 μM)”.

`O=C(NC1CC1)c1ccc2c(n1)N(C(=O)Nc1ccccn1)[C@H]1CCN2C1` [Example 2, (4S)—N7-cyclopropyl-N5-(pyridin-2-yl)-3,4-dihydro-1,4-methano pyrido[2,3-b][1,4]diazepine-5, 7(2H)-dicarboxamide]: the Emax is > 150% and the “TRP Activity (EC1.5, concentration of test compound that results in 150% activation of SIRT1)” value was “A (EC1.5<1 μM)”.

For the compound `Cc1ncc(-c2ccnc(NC(=O)N3c4nc(C(=O)NC5CC5)ccc4N4CC[C@H]3C4)c2)o1` [Example 123, (4S)—N7-cyclopropyl-N5-(4-(2-methyloxazol-5-yl)pyridin-2-yl)-3,4-dihydro-1,4-methanopyrido[2,3-b][1,4]diazepine-5,7(2H)-dicarboxamide], the Emax was > 150% and the “TRP Activity (EC1.5, concentration of test compound that results in 150% activation of SIRT1)” value is reported as “B (EC1.5 1-25 μM)”.

Regarding `O=C(NC1(CO)CC1)c1ccc2c(n1)N(C(=O)Nc1ccccn1)[C@H]1CCN2C1` [Example 17, (4S)—N7-(1-(hydroxymethyl)cyclopropyl)-N5-(pyridin-2-yl)-3,4-dihydro-1,4-methanopyrido[2,3-b][1,4]diazepine-5,7(2H)-dicarboxamide], the Emax is > 150% and the “TRP Activity (EC1.5, concentration of test compound that results in 150% activation of SIRT1)” value is given as “B (EC1.5 1-25 μM)”.

As for `CNC(=O)c1ccc2c(n1)N(C(=O)Nc1ccccn1)[C@H]1CCN2C1` [Example 212, (4S)—N7-methyl-N5-(pyridin-2-yl)-3,4-dihydro-1,4-methanopyrido[2,3-b][1,4]diazepine-5,7(2H)-dicarboxamide], the Emax was > 150% and the “TRP Activity (EC1.5, concentration of test compound that results in 150% activation of SIRT1)” value is listed as “B (EC1.5 1-25 μM)”.

As to `Cc1cc(C(=O)NCC(F)(F)F)nc2c1N1CC[C@@H](C1)N2C(=O)Nc1ccccn1` [Example 287, (4S)-9-methyl-N5-(pyridin-2-yl)-N7-(2,2,2-trifluoroethyl)-3,4-dihydro-1,4-methanopyrido[2,3-b][1,4]diazepine-5,7(2H)-dicarboxamide], the Emax is > 150% and the “TRP Activity (EC1.5, concentration of test compound that results in 150% activation of SIRT1)” value was “A (EC1.5<1 μM)”.
